Measurements published in ChEMBL document CHEMBL2073828, “The breast cancer resistance protein (Bcrp1/Abcg2) restricts exposure to the dietary carcinogen 2-amino-1-methyl-6-phenylimidazo[4,5-b]pyridine” (Cancer Res, 2003).

Assays:
[1] = molecular target: T1, Broad substrate specificity ATP-binding cassette transporter ABCG2 (Mus musculus, UniProt Q7TMS5); experiment: TP_TRANSPORTER: biliary excretion; format: functional, organism-based, Bile; details: in vivo
T1 sequence (Q7TMS5 whole entry): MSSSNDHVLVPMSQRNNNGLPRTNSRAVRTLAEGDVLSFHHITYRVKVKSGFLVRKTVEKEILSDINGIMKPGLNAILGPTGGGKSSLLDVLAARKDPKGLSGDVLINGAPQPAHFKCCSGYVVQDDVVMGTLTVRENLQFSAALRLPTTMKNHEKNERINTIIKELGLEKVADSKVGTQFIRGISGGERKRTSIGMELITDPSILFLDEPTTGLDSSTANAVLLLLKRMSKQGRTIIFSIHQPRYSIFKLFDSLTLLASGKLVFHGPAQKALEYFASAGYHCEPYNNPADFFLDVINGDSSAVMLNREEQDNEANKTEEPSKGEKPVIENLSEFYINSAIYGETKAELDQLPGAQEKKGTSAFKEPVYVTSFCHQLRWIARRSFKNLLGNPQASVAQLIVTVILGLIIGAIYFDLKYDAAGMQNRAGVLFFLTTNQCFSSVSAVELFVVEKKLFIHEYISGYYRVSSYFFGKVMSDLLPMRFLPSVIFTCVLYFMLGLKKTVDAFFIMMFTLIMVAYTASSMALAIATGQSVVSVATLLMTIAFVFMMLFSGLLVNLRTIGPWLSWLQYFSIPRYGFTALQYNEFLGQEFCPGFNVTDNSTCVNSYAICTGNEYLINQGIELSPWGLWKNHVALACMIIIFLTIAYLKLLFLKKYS

[2] = molecular target: T1, Broad substrate specificity ATP-binding cassette transporter ABCG2; experiment: TP_TRANSPORTER: transcellular transport in MDCKII; format: functional, cell-based; details: dog, mdck-ii
[3] = molecular target: T1, Broad substrate specificity ATP-binding cassette transporter ABCG2; experiment: TP_TRANSPORTER: intestinal excretion; format: functional, organism-based; details: in vivo

Measured: Activity

Cn1c(N)nc2ncc(-c3ccccc3)cc21 [2-AMINO-1-METHYL-6- PHENYLIMIDAZO[4,5- B]PYRIDINE]
substrate []: all assays above
